Source: article PMC5603573, “Cyclipostins and Cyclophostin analogs as promising compounds in the fight against tuberculosis” (Scientific Reports, 2017)
≈ marks a conversion by molar mass, not a printed value. Where two headings read alike, the source gives them in different places.

Assays:
M. tb H37Rv-GFP [1] = assay: microbe, parasite or virus in culture; type: cell-based, Mycobacterium tuberculosis
[2] = test system: M. tb H37Rv-GFP replicating inside Raw264.7 macrophages; assay: microbe, parasite or virus in culture; type: cell-based, Mycobacterium tuberculosis; details: for MIC50: read-out: Intracellular macrophage growth MIC50
in vitro = details: mouse
M. tb mc^26230 WT = assay: microbe, parasite or virus in culture; type: cell-based; details: REMA
[3] = test system: M. tb mc^26230-empty vector; assay: REMA, empty vector strain; type: cell-based, Mycobacterium tuberculosis; details: Mycobacterium tuberculosis, REMA
[4] = test system: serine/cysteine enzymes in M. tb mc^26230 lysate; assay: Competitive ABPP labelling/enrichment with Desthiobiotin-FP (and TAMRA-FP), LC-MS/MS target identification; type: binding, Mycobacterium tuberculosis; details: lysate pre-incubated with 580 µM inhibitor, 37 °C, 90 min
M. tb H37Rv-GFP [5] = test system: M. tb H37Rv-GFP; parameters: method as in PMID 19876393; details: M. tb H37Rv-GFP in broth medium; cited from earlier work
[6] = test system: M. tb H37Rv-GFP replicating inside Raw264.7 macrophages; parameters: method as in PMID 19876393; details: Raw264.7 macrophages infected with M. tb H37Rv-GFP; cited from earlier work
[7] = test system: Raw264.7 murine macrophages; parameters: method as in PMID 19876393; details: 50% host cell toxicity, Raw264.7 macrophages, read-out: Intracellular macrophage growth CC50, cited from earlier work
M. tb [8] = test system: M. tb; parameters: method as in PMID 23029536, PMID 27503643, doi:10.1039/C6MD00231E; details: M. tb growth, inhibitor alone; cited from earlier work
M. tb [9] = test system: M. tb; parameters: method as in earlier work; details: combined application with vancomycin; ref 62 (Orlistat), 28 (Lalistat); cited from earlier work
[10] = Mycobacterium tuberculosis, H37RV, 120 h, read-out: Extracellular growth MIC50
[11] = Mycobacterium tuberculosis, H37RV, 120 h
[12] = read-out: Extracellular growth MIC50

Compound `CCCCCCCCCC[C@@H]1CC[P@](=O)(OC)OC(C)=C1C(=O)OC` (relative stereo) [CyC 7(α)] has an MIC50 (M. tb H37Rv-GFP [1]; [10]) of 92.6 µM (≈ 34.7 µg/mL), an MIC50 [2, 11] of 4.5 µM (≈ 1.69 µg/mL) and a CC50 (in vitro) of over 100 µM.

Work on `CCCCCCCCCCCC[C@@H]1CC[P@](=O)(OC)OC(C)=C1C(=O)OC` (relative stereo) [CyC 8(α)] yielded an MIC50 [2, 11] of 3 to 4 µM (≈ 1.21 to 1.61 µg/mL), an MIC50 [2] of 4.0 µM (≈ 1.61 µg/mL) and a CC50 (in vitro) of over 100 µM.

For `CCCCCC1CCP(=O)(OC)OC(C)=C1C(=O)OC` (stereo not drawn) [CyC 6(β)], the “Extracellular growth MIC50” value (M. tb H37Rv-GFP [1]) was “No effect”, the MIC50 [2, 11] was 12.6 µM (≈ 3.83 µg/mL) and the CC50 (in vitro) was over 100 µM.

For `CCCCCCCCCCC1CCP(=O)(OC)OC(C)=C1C(=O)OC` (stereo not drawn) [CyC 7(β)], the MIC50 (M. tb H37Rv-GFP [1]; [10]) was 16 to 40 µM (≈ 5.99 to 15 µg/mL), the MIC50 (M. tb H37Rv-GFP [1]; [12]) was 16.6 µM (≈ 6.22 µg/mL) and the MIC50 [2, 11] was 3 to 4 µM (≈ 1.12 to 1.5 µg/mL). For the same compound, the MIC50 [2] was 3.1 µM (≈ 1.16 µg/mL) and the CC50 (in vitro) was over 100 µM.

Work on `CCCCCCCCCCCCC1CCP(=O)(OC)OC(C)=C1C(=O)OC` (stereo not drawn) [CyC 8(β)] yielded an MIC50 (M. tb H37Rv-GFP [1]; [10]) of over 100 µM, an MIC50 [2, 11] of 11.7 µM (≈ 4.71 µg/mL) and a CC50 (in vitro) of over 20 µM.

With `CCCCCCCCCCCCCCCCOP1(=O)CCCC(C(=O)OC)=C(C)O1` (centres unmarked) [CyC 11] the “antibacterial activity against M. tb (in words)” value (“antibacterial activity” below) (M. tb H37Rv-GFP [1]) was “non-active”.

For `CCCCCCCCCCCCCCCCCCOP1(=O)CCCC(C(=O)OC)=C(C)O1` (centres unmarked) [CyC 12], the “antibacterial activity” value (M. tb H37Rv-GFP [1]) was “non-active”.

For `CCCCCCCCCCCCCCCCOP1(=O)CCC(CCCCCCCCCC)C(C(=O)OC)=C(C)O1` (centres unmarked) [CyC 13], the “antibacterial activity” value (M. tb H37Rv-GFP [1]) was “did not yield any significant antibacterial activity”.

In the case of `CCCCCCCCCCCCCCCCOP1(=O)OC(C)=C(C(=O)OC)CCC1(F)F` (centres unmarked) [CyC 14], the “antibacterial activity” value (M. tb H37Rv-GFP [1]) is reported as “non-active”.

In the case of `CCCCCCCCCCCCCCCCOP1(=O)OCCC(C(=O)OC)=C(C)O1` (centres unmarked) [CyC 17], the MIC50 (M. tb H37Rv-GFP [1]; [10]) is reported as 0.5 µM (≈ 0.223 µg/mL), the MIC50 (M. tb H37Rv-GFP [1]; Mycobacterium tuberculosis, H37RV, read-out: Extracellular MIC50) is reported as about 0.5 µM (≈ 0.223 µg/mL) and the MIC50 (M. tb H37Rv-GFP [1]; [12]) is reported as 0.50 µM (≈ 0.223 µg/mL). For the same compound, the “Intracellular macrophage growth MIC50” value [2] was “No effect”, the MIC50 (M. tb mc^26230 WT; Mycobacterium tuberculosis, read-out: MIC50) was 0.55 ± 0.023 µM (≈ 0.246 µg/mL) and the MIC50 (M. tb mc^26230 WT) was 0.55 ± 0.023 µM (≈ 0.246 µg/mL). For the same compound, the MIC50 [3] was 0.52 ± 0.01 µM (≈ 0.232 µg/mL), the “Effect of pre-treatment on Desthiobiotin-FP labelled bands (SDS-PAGE)” value [4] was “decrease in intensity of bands 1, 2 and 8; or disapearance of bands 3-7 and 9” and the CC50 (in vitro) was over 100 µM.

For `CCCCCCCCCCCCCCCCO[P@]1(=O)OC[C@@H]2COC(=O)C2=C(C)O1` [CyC 18(α)], the MIC50 (M. tb H37Rv-GFP [1]; [10]) was 24.4 µM (≈ 10.8 µg/mL), the “Intracellular macrophage growth MIC50” value [2] was “No effect” and the CC50 (in vitro) was over 100 µM.

In the case of `CCCCCCCCCCCCCCCCO[P@]1(=O)OC[C@H]2COC(=O)C2=C(C)O1` [CyC 18(β), Cyclipostins P], the MIC50 (M. tb H37Rv-GFP [1]; [10]) is reported as 1.7 µM (≈ 0.756 µg/mL), the “Intracellular macrophage growth MIC50” value [2] is reported as “No effect” and the CC50 (in vitro) is reported as over 100 µM.

In the case of `CCc1cc(C(N)=S)ccn1` [Ethionamide (ETO), Ethionamide], the “Extracellular growth MIC50” value (M. tb H37Rv-GFP [5]) is given as 6.0 µM, the “Intracellular macrophage growth MIC50” value [6] is given as 6.0 µM and the CC50 ([7]; listed as ethionamide) is given as at least 120 µM. The CC50 [7] was 120 µM.

For `NNC(=O)c1ccncc1` [Isoniazid (INH), Isoniazid], the “Extracellular growth MIC50” value (M. tb H37Rv-GFP [5]) is given as 1.2 µM, the “Intracellular macrophage growth MIC50” value [6] is given as 1.2 µM and the CC50 [7] is given as over 150 µM.

For `CCCCCCCCCCC[C@@H](C[C@@H]1OC(=O)[C@H]1CCCCCC)OC(=O)[C@H](CC(C)C)NC=O` [Orlistat], the MIC (M. tb [8]) is listed as 25 to 50 µM, the MIC (M. tb [9]) is listed as ~ 6 µM and the MIC drop (M. tb [9]) is listed as 16 fold.

In the case of `CO[C@H]1/C=C/O[C@@]2(C)Oc3c(C)c(O)c4c(O)c(c(/C=N/N5CCN(C)CC5)c(O)c4c3C2=O)NC(=O)/C(C)=C\C=C\[C@H](C)[C@H](O)[C@@H](C)[C@@H](O)[C@@H](C)[C@H](OC(C)=O)[C@@H]1C` [Rifampicin (RIF), Rifampicin], the “Extracellular growth MIC50” value (M. tb H37Rv-GFP [5]) is given as 0.01 µM, the “Intracellular macrophage growth MIC50” value [6] is given as 2.9 µM and the CC50 [7] is given as 24 µM.

In the case of Lalistat, the MIC (M. tb [8]) is given as 25 to 50 µM, the MIC (M. tb [9]) is given as 6 to 12 µM and the MIC drop (M. tb [9]) is given as 4 fold.

In the case of MmPPOX, the MIC (M. tb [8]) is listed as 25 to 50 µM.
